What all share (type): functional, Stomach
Experiment [1] relates to Rattus norvegicus. As to the kind of experiment: Antiulcer activity in Wistar Rattus norvegicus (rat) assessed as increase in pH of gastric secretions at 0.0579 mM/kg, po administered 1 hr prior to pylorous ligation measured after 19 hr by digital pH metric analysis relative to untreated control.
Experiment [2] deals with Rattus norvegicus. As to the kind of experiment: Antiulcer activity in Wistar Rattus norvegicus (rat) assessed as decrease in total volume of gastric secretions at 0.0579 mM/kg, po administered 1 hr prior to pylorous ligation measured after 19 hr relative to untreated control. Also on record: scale not given: the % may be the effect or the level left.
For experiment [3], the system named is Rattus norvegicus. The experiment is described as follows: Antiulcer activity in Wistar Rattus norvegicus (rat) assessed as decrease in total volume of gastric secretions at 0.1158 mM/kg, po administered 1 hr prior to pylorous ligation measured after 19 hr relative to untreated control. Also on record: scale not given: the % may be the effect or the level left.

Experiment [4] concerns Rattus norvegicus. As to the kind of experiment: Antiulcer activity in Wistar Rattus norvegicus (rat) assessed as decrease in total acidity of gastric secretions at 0.1158 mM/kg, po administered 1 hr prior to pylorous ligation measured after 19 hr by titRattus norvegicus (rat)ion assay relative to untreated control. Set-up: scale not given: the % may be the effect or the level left.

The subject of experiment [5] is Rattus norvegicus. The experiment is described as follows: Antiulcer activity in Wistar Rattus norvegicus (rat) assessed as decrease in total acidity of gastric secretions at 0.0579 mM/kg, po administered 1 hr prior to pylorous ligation measured after 19 hr by titRattus norvegicus (rat)ion assay relative to untreated control. Also on record: scale not given: the % may be the effect or the level left.

In experiment [6] the test system is Rattus norvegicus. As to the kind of experiment: Antiulcer activity in Wistar Rattus norvegicus (rat) assessed as increase in pH of gastric secretions at 0.1158 mM/kg, po administered 1 hr prior to pylorous ligation measured after 19 hr by digital pH metric analysis relative to untreated control.
Experiment [7] concerns Rattus norvegicus. The experiment is described as follows: Antiulcer activity in Wistar Rattus norvegicus (rat) assessed as change in pH of gastric secretions at 0.0289 mM/kg, po administered 1 hr prior to pylorous ligation measured after 19 hr by digital pH metric analysis relative to untreated control.
Experiment [8] deals with Rattus norvegicus. As to the kind of experiment: Antiulcer activity in Wistar Rattus norvegicus (rat) assessed as decrease in total acidity of gastric secretions at 0.0289 mM/kg, po administered 1 hr prior to pylorous ligation measured after 19 hr by titRattus norvegicus (rat)ion assay relative to untreated control. Also on record: scale not given: the % may be the effect or the level left.

For experiment [9], the system named is Rattus norvegicus. As to the kind of experiment: Antiulcer activity in Wistar Rattus norvegicus (rat) assessed as decrease in total volume of gastric secretions at 0.0289 mM/kg, po administered 1 hr prior to pylorous ligation measured after 19 hr relative to untreated control. Also on record: scale not given: the % may be the effect or the level left.

As for `COc1nc(C[S+]([O-])c2nc3ccccc3[nH]2)nc2scc(-c3ccc(Cl)cc3)c12` (configuration not stated), the Activity was determined as 11.17% in [1]; 58.24% in experiment [2]; 69.68% in experiment [3]; 51.46% in experiment [4]; 42.43% in [5]; 23.31% in experiment [6]. Moreover, the figures for the Activity in experiment [7], in experiment [8] and in [9] were 8.96%, 32.05% and 52.65%, respectively.
As to `COc1ccc2[nH]c([S+]([O-])Cc3nc(OC)c4c5c(sc4n3)CCCC5)nc2c1` (configuration not stated), the Activity in experiment [1] turned out to be 9.05%; in [2] it was 77.39%; in experiment [3] it was 57.71%; in experiment [4], 50.33%; in experiment [5], 33.86%; in experiment [6], 10.33%. For the same compound, the Activity in [7] is reported as 1.44%; in [8] it was 29.57%; in experiment [9], 69.94%.
On to `COc1ccc2[nH]c([S+]([O-])Cc3nc(OC)c4c(-c5ccccc5)csc4n3)nc2c1` (configuration not stated), for which the Activity worked out at 4.02% in experiment [1]; 46.01% in [2]; 52.92% in [3]; 38.6% in experiment [4]; 23.7% in experiment [5]; 10.84% in experiment [6]. Besides, the results for the Activity in experiment [7], in experiment [8] and in [9] were 3.35%, 17.6% and 47.07%, respectively.
`COc1ccc2[nH]c([S+]([O-])Cc3nc(OC)c4c(-c5ccc(Cl)cc5)csc4n3)nc2c1` (configuration not stated): the Activity in [1] turned out to be 2.25%; in [2], 43.88%; in experiment [3] it was 55.58%; in [4], 37.92%; in experiment [5], 22.12%; in experiment [6], 3.048%. For the same compound, the Activity in [7] is 5.41%; in [8] it was 5.41%; in [9] it was 28.19%.
With `COc1nc(C[S+]([O-])c2nc3ccccc3[nH]2)nc2scc(-c3ccccc3)c12` (configuration not stated), the Activity in [1] was found to be 6.19%; in [2], 61.96%; in [3], 72.34%; in [4], 36.79%; in experiment [5], 25.28%; in experiment [6], 9.91%. Moreover, the values for the Activity in experiment [7], in experiment [8] and in experiment [9] were 0.72%, 23.92% and 70.74%, respectively.
For `COc1ccc2[nH]c([S+]([O-])Cc3nc(Cl)c4c(-c5ccccc5)csc4n3)nc2c1` (configuration not stated), the Activity is 5.54% in experiment [1]; 68.08% in [2]; 76.32% in experiment [3]; 40.18% in experiment [4]; 25.5% in experiment [5]; 14.36% in [6]. The figures for the Activity in experiment [7], in experiment [8] and in experiment [9] were 5.45%, 20.76% and 42.02%, respectively.
`[O-][S+](Cc1nc(OCC(F)(F)F)c2c(-c3ccccc3)csc2n1)c1nc2ccccc2[nH]1` (configuration not stated): the Activity in experiment [1] amounted to 0.1%; in [2], 45.21%; in experiment [3], 50.53%; in [4], 45.37%; in [5], 26.18%; in experiment [6], 8.09%. Further, the Activity in [7] is recorded as 3.69%; in experiment [8], 16.93%; in [9], 49.46%.
Regarding `COc1ccc2[nH]c([S+]([O-])Cc3nc(Cl)c4c5c(sc4n3)CCCC5)nc2c1` (configuration not stated), the Activity in experiment [1] is 11.99%; in experiment [2], 53.98%; in experiment [3], 59.84%; in experiment [4] it was 48.08%; in [5], 41.76%; in experiment [6], 20.03%. Further, the Activity amounted to 5.07% in experiment [7], 24.37% in [8] and 44.41% in experiment [9].
On to `COc1nc(C[S+]([O-])c2nc3ccccc3[nH]2)nc2sc3c(c12)CCCC3` (configuration not stated), for which the Activity in experiment [1] amounted to 17.33%; in experiment [2] it was 51.06%; in experiment [3] it was 50%; in [4], 39.27%; in experiment [5], 37.69%; in experiment [6], 23.55%. Moreover, the results for the Activity in experiment [7], in [8] and in experiment [9] were 6.65%, 24.15% and 23.93%, respectively.
`[O-][S+](Cc1nc(OCC(F)(F)F)c2c(-c3ccc(Cl)cc3)csc2n1)c1nc2ccccc2[nH]1` (configuration not stated): the Activity turned out to be 17.97% in experiment [1]; 50.26% in experiment [2]; 60.37% in experiment [3]; 52.82% in experiment [4]; 41.76% in [5]; 32.86% in experiment [6]. For the same compound, the Activity worked out at 2.03% in experiment [7], 22.34% in experiment [8] and 43.08% in experiment [9].
Take `COc1ccc2[nH]c([S+]([O-])Cc3ncc(C)c(OC)c3C)nc2c1` (configuration not stated) [OMEPRAZOLE]: the Activity in experiment [1] worked out at 55.79%; in [2], 63.55%; in [3] it was 73.93%; in [4] it was 71.55%; in [5], 56.65%; in experiment [6], 62.67%. The Activity worked out at 50.9% in experiment [7], 49.66% in [8] and 53.72% in [9].
Turning to `COc1ccc2[nH]c([S+]([O-])Cc3nc(Cl)c4c(-c5ccc(Cl)cc5)csc4n3)nc2c1` (configuration not stated), the Activity was 5.91% in [1]; 67.28% in [2]; 73.67% in experiment [3]; 44.01% in [4]; 24.37% in experiment [5]; 19.72% in experiment [6]. Further, the Activity in experiment [7] is 1.44%; in [8], 18.05%; in experiment [9], 56.64%.
In the case of `[O-][S+](Cc1nc(OCC(F)(F)F)c2c3c(sc2n1)CCCC3)c1nc2ccccc2[nH]1` (configuration not stated), the Activity in [1] was determined as 6.28%; in [2] it was 29.78%; in experiment [3] it was 34.57%; in experiment [4], 52.14%; in experiment [5], 38.14%; in experiment [6] it was 14.13%. Moreover, the Activity in experiment [7] is recorded as 5.45%; in experiment [8] it was 27.08%; in experiment [9] it was 60.1%.

Source of the values: ChEMBL document CHEMBL3044567, “Synthesis and biological evaluation of novel condensed pyrimidinylmethylsulfinylbenzimidazoles as antiulcer agent” (2013).
